The results in this text go back to ChEMBL document CHEMBL6153125, “Harnessing the Magic Methyl Effect: Discovery of CLPP-2068 as a Novel HsClpP Activator for the Treatment of Diffuse Large B-Cell Lymphoma” (J Med Chem, 2025).

One data set deals with Bcr/Abl fusion protein (Homo sapiens, UniProt P00519). The data set is described as follows: Inhibition of Bcr-Abl (unknown origin).
The nature of data set [1]: Half life in ICR mouse at 15 mg/kg, po measured upto 24 hrs by LC-MS/MS analysis. As to conditions: in vivo.
Data set [2] is described as follows: MRT in ICR mouse at 15 mg/kg, po measured upto 24 hrs by LC-MS/MS analysis. The note with it: in vivo.
A short description of data set [3]: Half life in ICR mouse at 5 mg/kg, iv measured upto 24 hrs by LC-MS/MS analysis. As to conditions: in vivo.
The nature of data set [4]: Clearance in ICR mouse at 5 mg/kg, iv measured upto 24 hrs by LC-MS/MS analysis. As to conditions: in vivo.
Data set [5] is described as follows: MRT in ICR mouse at 5 mg/kg, iv measured upto 24 hrs by LC-MS/MS analysis. The note with it: in vivo.
The nature of data set [6]: Metabolic stability in human liver microsomes assessed as half life. In general terms: Liver microsomes are a subcellular fraction often used to study metabolism.
Data set [7] is described as follows: Metabolic stability in human liver microsomes assessed as intrinsic clearance.
Data set [8] is described as follows: in vivo. The note with it: ICR, mouse, po, 15 mg/kg.
Description: Tmax in ICR mouse at 15 mg/kg, po measured upto 24 hrs by LC-MS/MS analysis
The nature of data set [9]: in vivo. The note with it: ICR, mouse, po, 15 mg/kg. This is another data set of the same source.
Description: Cmax in ICR mouse at 15 mg/kg, po measured upto 24 hrs by LC-MS/MS analysis
Data set [10] is described as follows: in vivo. As to conditions: ICR, mouse, po, 15 mg/kg. This is another data set of the same source.
Description: AUC (0 to t) in ICR mouse at 15 mg/kg, po measured upto 24 hrs by LC-MS/MS analysis
Data set [11] in a line: in vivo. As to conditions: ICR, mouse, po, 15 mg/kg. The source holds these as a separate data set.
Description: Oral bioavailability in ICR mouse at 15 mg/kg measured upto 24 hrs by LC-MS/MS analysis
Data set [12] in a line: in vivo. As to conditions: ICR, mouse, iv, 5 mg/kg.
Data set [13] deals with Voltage-gated inwardly rectifying potassium channel KCNH2 (Homo sapiens, UniProt Q12809).
Sequence of Voltage-gated inwardly rectifying potassium channel KCNH2 (Q12809 whole entry): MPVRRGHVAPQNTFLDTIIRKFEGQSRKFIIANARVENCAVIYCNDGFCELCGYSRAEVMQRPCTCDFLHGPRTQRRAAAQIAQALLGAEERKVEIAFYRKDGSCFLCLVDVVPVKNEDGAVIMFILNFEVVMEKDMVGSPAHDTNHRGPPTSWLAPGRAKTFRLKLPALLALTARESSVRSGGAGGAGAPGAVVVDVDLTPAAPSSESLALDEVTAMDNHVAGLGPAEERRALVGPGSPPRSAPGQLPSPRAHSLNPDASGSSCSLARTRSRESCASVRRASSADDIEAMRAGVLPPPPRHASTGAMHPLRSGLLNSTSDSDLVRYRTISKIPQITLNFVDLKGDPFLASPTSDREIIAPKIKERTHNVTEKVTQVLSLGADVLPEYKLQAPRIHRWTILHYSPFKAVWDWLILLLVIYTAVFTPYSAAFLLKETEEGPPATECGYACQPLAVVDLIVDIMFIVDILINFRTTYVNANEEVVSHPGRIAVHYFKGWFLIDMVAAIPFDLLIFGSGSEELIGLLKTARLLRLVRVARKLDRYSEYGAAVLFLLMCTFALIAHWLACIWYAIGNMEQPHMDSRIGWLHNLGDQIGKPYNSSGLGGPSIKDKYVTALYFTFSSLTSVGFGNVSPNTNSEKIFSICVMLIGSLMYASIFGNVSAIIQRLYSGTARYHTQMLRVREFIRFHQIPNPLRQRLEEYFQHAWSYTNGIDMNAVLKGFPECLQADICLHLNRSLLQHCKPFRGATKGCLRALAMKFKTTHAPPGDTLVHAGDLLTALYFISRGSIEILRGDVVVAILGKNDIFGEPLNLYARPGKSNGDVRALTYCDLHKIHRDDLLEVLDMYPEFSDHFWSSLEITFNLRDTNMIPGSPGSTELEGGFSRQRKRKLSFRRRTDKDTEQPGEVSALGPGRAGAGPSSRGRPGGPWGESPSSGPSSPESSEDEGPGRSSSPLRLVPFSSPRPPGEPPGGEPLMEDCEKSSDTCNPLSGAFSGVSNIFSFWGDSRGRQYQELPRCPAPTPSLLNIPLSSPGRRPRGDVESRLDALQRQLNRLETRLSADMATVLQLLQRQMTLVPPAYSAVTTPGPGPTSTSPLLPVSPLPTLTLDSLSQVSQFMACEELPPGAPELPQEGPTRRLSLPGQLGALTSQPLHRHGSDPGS
In data set [14] the target is ATP-dependent Clp protease proteolytic subunit, mitochondrial (Homo sapiens, UniProt Q16740). The data set can be described thus: Activation of human ClpP extracted from Escherichia coli using Ac-WLA-AMC as substrate assessed as fluorescence signal measured after 10 mins incubation.
Sequence of ATP-dependent Clp protease proteolytic subunit, mitochondrial (Q16740 whole entry): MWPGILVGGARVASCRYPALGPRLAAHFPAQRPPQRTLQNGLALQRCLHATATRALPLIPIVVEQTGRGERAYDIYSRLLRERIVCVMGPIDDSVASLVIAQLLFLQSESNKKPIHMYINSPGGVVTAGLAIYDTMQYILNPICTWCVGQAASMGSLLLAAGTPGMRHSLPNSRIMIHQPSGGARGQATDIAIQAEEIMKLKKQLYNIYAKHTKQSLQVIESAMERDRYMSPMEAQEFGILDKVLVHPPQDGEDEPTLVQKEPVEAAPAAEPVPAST
The test system of a further data set is OCI-Ly10. The data set is described as follows: Antiproliferative activity against human OCI-Ly10 cells assessed as cell viability measured after 72 hrs incubation by CellTiter-based growth inhibition assay. As to conditions: OCI-Ly10, 72 h.
Data set [15] addresses T1, 3-hydroxy-3-methylglutaryl-coenzyme A reductase (Rattus norvegicus, UniProt P51639).
T1 sequence (P51639 whole entry): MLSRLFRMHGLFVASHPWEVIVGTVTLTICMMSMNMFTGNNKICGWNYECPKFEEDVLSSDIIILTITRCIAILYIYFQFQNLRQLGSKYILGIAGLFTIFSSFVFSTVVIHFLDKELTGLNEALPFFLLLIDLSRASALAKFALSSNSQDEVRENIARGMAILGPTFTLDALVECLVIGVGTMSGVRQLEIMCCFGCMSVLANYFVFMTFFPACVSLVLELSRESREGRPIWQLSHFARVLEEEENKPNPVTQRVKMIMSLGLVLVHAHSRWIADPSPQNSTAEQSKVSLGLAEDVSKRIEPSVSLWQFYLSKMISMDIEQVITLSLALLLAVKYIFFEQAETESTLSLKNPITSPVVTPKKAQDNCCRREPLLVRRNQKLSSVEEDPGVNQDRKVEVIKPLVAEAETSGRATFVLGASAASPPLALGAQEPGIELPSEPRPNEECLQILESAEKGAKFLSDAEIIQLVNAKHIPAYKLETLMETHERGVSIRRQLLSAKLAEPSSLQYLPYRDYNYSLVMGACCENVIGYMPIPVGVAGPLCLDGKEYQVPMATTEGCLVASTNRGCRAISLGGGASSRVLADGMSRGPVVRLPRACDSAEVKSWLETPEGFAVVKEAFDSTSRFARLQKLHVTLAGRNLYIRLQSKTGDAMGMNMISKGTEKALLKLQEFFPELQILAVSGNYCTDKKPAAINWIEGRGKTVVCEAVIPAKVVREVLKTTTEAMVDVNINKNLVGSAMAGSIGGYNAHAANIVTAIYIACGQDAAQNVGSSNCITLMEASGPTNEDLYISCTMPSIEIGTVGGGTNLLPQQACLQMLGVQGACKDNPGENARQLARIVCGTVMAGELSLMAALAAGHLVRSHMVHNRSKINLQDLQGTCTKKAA
Description: Inhibition of HMG-CoA reductase activity in rat liver microsomes

Data set [16] is described as follows: in vivo. As to conditions: rat, blood, iv, 10 mg/kg.
Description: Elimination half life in rat blood at 10 mg/kg, iv measured after 12 hrs

As usually defined, the IC50 is the concentration needed to halve the response being measured. Usually half-life stands for the time in which the quantity being followed falls by half. The term MRT denotes the average time that molecules of a dose stay in the body. The term clearance denotes a measure of how efficiently the substance is removed, as volume per time. Usually CLint scaled stands for the rate of metabolic loss divided by the concentration. For orientation: Tmax means the time from dosing to the highest level. By Cmax is commonly meant the maximum level reached in the sampled fluid or tissue. A word on the AUC(0-t): it is the area under the concentration-time curve up to a stated or last time point. Read a high AUC(0-t) as more exposure. The bioavailability is the share of a dose that reaches the circulation, judged against a reference dose that is usually intravenous. Read a low bioavailability as little systemic uptake.

Non-standard residues stand in square brackets, D forms with d. Residues, ends and D or L forms follow the SMILES beside them. αMeP = C[C@@]1(C(=O)O)CCCN1

Sequence of Bcr/Abl fusion protein (P00519 whole entry, the tested form may be a part): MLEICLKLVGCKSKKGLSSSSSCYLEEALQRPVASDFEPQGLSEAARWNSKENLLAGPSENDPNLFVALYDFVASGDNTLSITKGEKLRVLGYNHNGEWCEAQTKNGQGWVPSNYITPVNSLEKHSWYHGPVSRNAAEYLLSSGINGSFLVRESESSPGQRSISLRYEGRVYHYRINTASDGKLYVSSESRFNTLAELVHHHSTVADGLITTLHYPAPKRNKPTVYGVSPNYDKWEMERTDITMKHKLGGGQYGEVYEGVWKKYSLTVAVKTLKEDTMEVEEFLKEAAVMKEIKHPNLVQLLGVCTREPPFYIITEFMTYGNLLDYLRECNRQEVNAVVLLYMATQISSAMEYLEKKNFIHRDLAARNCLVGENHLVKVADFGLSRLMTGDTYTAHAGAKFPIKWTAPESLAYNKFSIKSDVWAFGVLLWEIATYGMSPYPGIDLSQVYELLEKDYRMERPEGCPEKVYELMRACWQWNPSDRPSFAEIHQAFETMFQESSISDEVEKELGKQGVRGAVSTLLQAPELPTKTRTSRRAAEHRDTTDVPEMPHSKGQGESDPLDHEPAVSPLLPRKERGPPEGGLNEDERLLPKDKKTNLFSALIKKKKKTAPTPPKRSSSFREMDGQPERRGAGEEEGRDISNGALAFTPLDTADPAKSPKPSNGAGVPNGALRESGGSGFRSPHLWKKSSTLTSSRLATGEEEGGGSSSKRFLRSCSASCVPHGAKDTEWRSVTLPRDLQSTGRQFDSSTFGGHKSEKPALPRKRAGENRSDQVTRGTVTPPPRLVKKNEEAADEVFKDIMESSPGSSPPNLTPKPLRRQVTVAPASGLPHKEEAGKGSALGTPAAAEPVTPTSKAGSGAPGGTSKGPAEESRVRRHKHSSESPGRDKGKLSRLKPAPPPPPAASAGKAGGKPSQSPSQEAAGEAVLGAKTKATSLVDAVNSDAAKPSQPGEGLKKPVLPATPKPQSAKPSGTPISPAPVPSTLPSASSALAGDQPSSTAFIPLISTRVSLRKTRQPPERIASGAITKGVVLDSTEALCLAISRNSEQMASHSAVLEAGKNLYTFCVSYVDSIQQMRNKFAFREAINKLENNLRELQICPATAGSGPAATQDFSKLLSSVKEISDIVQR
Sequence of Bcr/Abl fusion protein (P11274 whole entry, further chain, the tested form may be a part): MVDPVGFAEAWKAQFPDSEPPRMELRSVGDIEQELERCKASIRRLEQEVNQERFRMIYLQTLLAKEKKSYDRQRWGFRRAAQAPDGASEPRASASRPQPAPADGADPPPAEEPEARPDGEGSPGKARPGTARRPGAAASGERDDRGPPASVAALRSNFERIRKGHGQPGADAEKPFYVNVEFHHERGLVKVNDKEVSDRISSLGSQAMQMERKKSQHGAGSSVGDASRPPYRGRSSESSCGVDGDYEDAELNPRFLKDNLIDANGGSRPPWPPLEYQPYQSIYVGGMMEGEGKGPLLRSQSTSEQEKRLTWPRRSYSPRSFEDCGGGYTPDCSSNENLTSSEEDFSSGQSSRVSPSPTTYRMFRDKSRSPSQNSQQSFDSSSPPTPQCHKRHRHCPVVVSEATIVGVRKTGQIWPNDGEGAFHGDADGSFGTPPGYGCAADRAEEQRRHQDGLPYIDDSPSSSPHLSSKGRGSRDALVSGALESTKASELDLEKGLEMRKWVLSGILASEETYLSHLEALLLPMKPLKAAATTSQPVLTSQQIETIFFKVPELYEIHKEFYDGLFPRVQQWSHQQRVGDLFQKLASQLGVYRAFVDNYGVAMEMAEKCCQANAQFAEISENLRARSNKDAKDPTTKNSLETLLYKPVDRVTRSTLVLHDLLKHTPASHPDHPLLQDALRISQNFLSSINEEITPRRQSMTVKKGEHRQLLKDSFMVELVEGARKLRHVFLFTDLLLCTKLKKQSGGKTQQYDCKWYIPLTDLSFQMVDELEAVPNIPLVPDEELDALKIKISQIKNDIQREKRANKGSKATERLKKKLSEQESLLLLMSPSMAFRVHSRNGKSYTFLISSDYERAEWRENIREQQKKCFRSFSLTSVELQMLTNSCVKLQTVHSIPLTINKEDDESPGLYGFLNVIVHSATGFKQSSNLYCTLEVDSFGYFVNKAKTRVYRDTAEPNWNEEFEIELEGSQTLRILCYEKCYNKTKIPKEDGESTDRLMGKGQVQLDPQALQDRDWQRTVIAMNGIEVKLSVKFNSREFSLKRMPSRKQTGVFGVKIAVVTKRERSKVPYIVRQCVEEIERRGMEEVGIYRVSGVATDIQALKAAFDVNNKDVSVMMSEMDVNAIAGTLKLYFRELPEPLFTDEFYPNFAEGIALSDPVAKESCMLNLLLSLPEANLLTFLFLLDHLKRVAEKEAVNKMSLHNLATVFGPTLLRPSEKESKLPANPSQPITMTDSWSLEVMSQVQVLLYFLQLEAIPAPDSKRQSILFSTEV

On to `O=C(Nc1cccc(Nc2nccc(-c3cccnc3)n2)c1)c1ccccc1`, for which, on Bcr/Abl fusion protein, the IC50 was 200 nM.
On to `Cc1ccccc1CN1C(=O)C2=C(CCN(Cc3ccccc3)C2)N2CCN=C12.Cl.Cl.O`, for which the half-life at 24 h is 1.05 h in data set [1] and 0.91 h in data set [3]. Besides, the values for the MRT at 24 h in [2] and in data set [5] were 1.46 h and 0.86 h, respectively. The molecule also came in with a clearance at 24 h in [4] of 42.7 mL/min/kg. The half-life in [6] is 9.3 h. In data set [7], the CLint scaled was 187 mL/min/kg. For the same molecule, in “in vivo [8]”, the time of peak concentration (Tmax) at 24 h stood at 0.42 h. The molecule further came in with a Cmax at 24 h in “in vivo [9]” of 566 ng/mL. In addition, the area under the curve AUC(0-t) at 24 h is 894 ng·h/mL in the data set “in vivo [10]” and 1960 ng·h/mL in the data set “in vivo [12]”. In addition, in “in vivo [11]”, the bioavailability at 24 h was 15.2%.
`O=c1nc2n(c3c1CN(Cc1ccccc1)CC3)CCN2Cc1ccc(F)c(Br)c1` displayed a 50% inhibitory concentration (IC50) in data set [13] of 1520 nM.
As to `O=c1nc(NCc2ccc(C(F)(F)F)cc2)[nH]c2c1CN(Cc1ccccc1)CC2`, the EC50 in data set [14] was 2410 nM.
Turning to `C[C@@H]1Cc2nc(NCc3cccc4ccccc34)[nH]c(=O)c2CN1Cc1cccc(C#N)c1`, the EC50 in [14] was 67.9 nM. Also, in the data set on OCI-Ly10, the 50% inhibitory concentration (IC50) is 105 nM.
In the case of `C[C@@H]1Cc2nc(NCc3ccc(C(F)(F)F)cc3)[nH]c(=O)c2CN1Cc1ccccc1O`, the EC50 in data set [14] turned out to be 846 nM. The IC50 in the data set on OCI-Ly10 came out at 1290 nM.
For `C[C@@H]1Cc2nc(NCc3ccc(C(F)(F)F)cc3)[nH]c(=O)c2CN1Cc1cccc(C#N)c1` the same measures were 56.1 nM and 41.6 nM.
For `C[C@@H]1Cc2nc(NCc3ccc(Cl)cc3)[nH]c(=O)c2CN1Cc1cccc(C#N)c1` the same measures were 59.2 nM and 13.5 nM.
With `C[C@@H]1Cc2nc(NCc3ccc(C(F)(F)F)cc3)[nH]c(=O)c2CN1CC1CCCCC1`, in [14], the EC50 stood at 302 nM. In addition, in the data set with OCI-Ly10, the 50% inhibitory concentration (IC50) stood at 789 nM.
For `Cc1cc(Br)ccc1CNc1nc2c(c(=O)[nH]1)CN(Cc1cccc(C#N)c1)[C@H](C)C2` the same measures were 93 nM and 86.9 nM.
For `C[C@@H]1Cc2nc(NCc3ccc(Br)c(F)c3)[nH]c(=O)c2CN1Cc1cccc(C#N)c1` the same measures were 265 nM and 47.5 nM.
For `C[C@@H]1Cc2nc(NCc3ccc(C(F)(F)F)cc3)[nH]c(=O)c2CN1Cc1cccc2ccccc12` the same measures were 761 nM and 8210 nM.
Regarding `C[C@@H]1Cc2nc(N3CCC(c4ccccc4)C3)[nH]c(=O)c2CN1Cc1cccc(C#N)c1` (some centres undefined), the EC50 in data set [14] stood at 707 nM. Also, in the data set on OCI-Ly10, the IC50 was 5750 nM.
With `C[C@@H]1Cc2nc(NCc3ccc(C(F)(F)F)cc3)[nH]c(=O)c2CN1Cc1ccccc1`, the EC50 in data set [14] is 65.1 nM.
In the case of `Cc1ccccc1CNc1nc2c(c(=O)[nH]1)CN(Cc1cccc(C#N)c1)[C@H](C)C2`, the EC50 in data set [14] was found to be 43.4 nM. Further, the half-inhibitory concentration (IC50) in the data set with OCI-Ly10 was determined as 45 nM.
Take `Cc1ccc(CNc2nc3c(c(=O)[nH]2)CN(Cc2cccc(C#N)c2)[C@H](C)C3)cc1`: in data set [14], the EC50 is 26.9 nM. Further, the IC50 in the data set with OCI-Ly10 was 117 nM.
For `C[C@@H]1Cc2nc(NCc3ccc(C(F)(F)F)cc3)[nH]c(=O)c2CN1Cc1cccc(Br)c1` the same measures were 62.8 nM and 50.5 nM.
The corresponding values for `C[C@@H]1Cc2nc(NCC3CC3)[nH]c(=O)c2CN1Cc1cccc(C#N)c1` are 1430 nM and 4030 nM.
Consider `C[C@@H]1Cc2nc(NCc3ccc(C(F)(F)F)cc3)[nH]c(=O)c2CN1Cc1ccc(C#N)cc1`, for which the EC50 in data set [14] is 1360 nM. For the same molecule, in the data set with OCI-Ly10, the half-maximal inhibitory concentration (IC50) was 6040 nM.
`C[C@@H]1Cc2nc(NCc3ccccc3Br)[nH]c(=O)c2CN1Cc1cccc(C#N)c1`: the EC50 in [14] came to 349 nM. In addition, in the data set on OCI-Ly10, the IC50 was found to be 119 nM.
For the molecule `C[C@@H]1Cc2nc(NCc3ccc(C(F)(F)F)cc3)[nH]c(=O)c2CN1Cc1ccc(F)cc1`, the EC50 in [14] was 490 nM. The IC50 with OCI-Ly10 stood at 1080 nM.
For `C[C@@H]1Cc2nc(NCc3ccc(C(F)(F)F)cc3)[nH]c(=O)c2CN1Cc1cccc(Cl)c1` the same measures were 151 nM and 110 nM.
The corresponding values for `Cc1cccc(CNc2nc3c(c(=O)[nH]2)CN(Cc2cccc(C#N)c2)[C@H](C)C3)c1` are 113 nM and 148 nM.
The corresponding values for `C[C@@H]1Cc2nc(NCc3ccc(C(F)(F)F)cc3)[nH]c(=O)c2CN1Cc1cccc(F)c1` are 272 nM and 153 nM.
As for `C[C@@H]1Cc2nc(NCc3ccc(C(F)(F)F)cc3)[nH]c(=O)c2CN1Cc1cccc(OC(F)(F)F)c1`, the EC50 in [14] was found to be 270 nM. In addition, the IC50 with OCI-Ly10 amounted to 1290 nM.
`C[C@@H]1Cc2nc(NCc3ccc(C(F)(F)F)cc3)[nH]c(=O)c2CN1Cc1cccnc1`: the EC50 in data set [14] turned out to be 3380 nM. The IC50 with OCI-Ly10 is 7840 nM.
As for `COc1cccc(CN2Cc3c(nc(NCc4ccc(C(F)(F)F)cc4)[nH]c3=O)C[C@H]2C)c1`, in data set [14], the EC50 is 1000 nM. Further, the IC50 with OCI-Ly10 worked out at 9010 nM.
`C[C@@H]1Cc2nc(NCc3ccc(Br)cc3)[nH]c(=O)c2CN1Cc1cccc(C#N)c1` came in with an IC50 in data set [13] of 4910 nM.
As for `C[C@@H]1Cc2nc(NCc3ccc(C(F)(F)F)cc3)[nH]c(=O)c2CN1Cc1ccncc1`, in [14], the EC50 worked out at 3960 nM. In addition, in the data set on OCI-Ly10, the concentration for half-maximal inhibition (IC50) came out at 6400 nM.
On to `C[C@@H]1Cc2nc(NCc3cccc(Br)c3)[nH]c(=O)c2CN1Cc1cccc(C#N)c1`, for which the EC50 in [14] is 44.8 nM. In addition, the concentration for half-maximal inhibition (IC50) in the data set with OCI-Ly10 was 89.1 nM.
Turning to `C[C@@H]1Cc2nc(NCc3ccc(C(F)(F)F)cc3)[nH]c(=O)c2CN1Cc1ccccc1F`, the EC50 in data set [14] was found to be 1290 nM. In the data set with OCI-Ly10, the IC50 was 3100 nM.
Consider `CC[C@H](C)C(=O)O[C@H]1CCC=C2C=C[C@H](C)[C@H](CC[C@@H]3C[C@@H](O)CC(=O)O3)[C@H]21` [MEVASTATIN], for which half-maximal inhibition in [15] (IC50) was put at 5.6 nM.
Consider `C[C@@]1(C(=O)N[C@@H](CCC(=O)O)C(=O)O)CCCN1C(=O)CN` [TROFINETIDE] (H-Gly-[αMeP]-Glu-OH), for which the half-life at 12 h in “in vivo [16]” turned out to be 1.23 h.
